Laboratory results from patent US20100210611A1, “COMBINATION THERAPY” (priority 2007, published 2010).

What was measured:
[1] = system: Ascaris challenge in allergic sheep; assay: Allergic sheep model: EAR, LAR and AHR response to Ascaris challenge; type: in vivo; conditions: for AHR (%) inhibition / EAR (%) Inhibition / LAR (%) inhibition: single dose 30 minutes before Ascaris challenge
Experimental: The allergic sheep model was used to test the effect of inhaled montelukast acid against early asthmatic response (EAR), late asthmatic response (LAR) and airway hyper-reactivity (AHR) response to Ascaris challenge in allergic sheep. The compound was administered directly into the lungs using the Spinhaler DPI that was attached directly to an indwelling endotracheal tube. Capsules used in the Spinhaler contained a micronized blend of 20% drug/80% lactose, corresponding to approx. 5 mg of the active compound. The compound was administered as a single dose 30 minutes before Ascaris challenge. To optimize delivery, each Spinhaler actuation was synchronized with a series of aspiratory cycles.
Doses for inhalation were selected based on total IV doses administered in sheep studies that had been conducted. Administration of 3 or 9 capsules should achieve a total inhaled dose of approximately 0.1 mg/kg and 0.3 mg/kg, respectively. The purported dose delivered is an estimate based on an experimentally determined fine particle fraction efficiency of 30%. Plasma drug levels were measured at various time points throughout the study.
Initial experiments (n=2) were performed with 0.1 mg/kg of montelukast acid. […] The second set of experiments (n=4) was performed with 0.3 mg/kg of montelukast acid.

[2] = Moisture and light sensitivity; type: physicochemical
[3] = Approx. 0.1 mg/kg (3 capsules) inhaled via Spinhaler, n=2
[4] = Approx. 0.3 mg/kg (9 capsules) inhaled via Spinhaler, n=4

CC(C)(O)c1ccccc1CC[C@@H](SCC1(CC(=O)O)CC1)c1cccc(/C=C/c2ccc3ccc(Cl)cc3n2)c1 [Montelukast Acid, montelukast acid]
inhibition of EAR, LAR and AHR (in words) ([1]; 0.1 mg/kg inhaled, n=2): partial inhibition of the LAR and AHR but not the EAR | inhibition of EAR, LAR and AHR (in words) ([1]; 0.3 mg/kg inhaled, n=4): Marked inhibition of all three phases of the response | AHR (%) inhibition [1, 3]: 60% | EAR (%) Inhibition [1, 3]: 7% | LAR (%) inhibition [1, 3]: 42% | AHR (%) inhibition [1, 4]: 76% | EAR (%) Inhibition [1, 4]: 47% | LAR (%) inhibition [1, 4]: 79% | moisture and light sensitivity [2]: moisture sensitive and photosensitive
